From patent publication US11439603B2, “Compositions for ameliorating, preventing or treating somnipathy including phloroglucinol as active ingredient and compositions for suppressing intolerance to or alleviating side effects of agonist at benzodiazepine binding site of GABA-A receptor including phloroglucinol as active ingredient” (KOREA FOOD RESEARCH INSTITUTE, priority 2017, dated 2022)

Tests used:
[1] = test system: C57BL/6N mice; assay: Sleep architecture analysis (EEG/EMG) after single administration; format: in vivo; conditions: for NREM sleep / REM sleep: EEG recorded for 2 h after oral administration
Experimental: C57BL/6N mice (28-30 g, 12-week old male) were received from Koatech Co. Ltd. (Pyeongtaek, Gyeonggi-do, Korea) and acclimated to the vivarium for a period of one week before testing was conducted. The animals were housed at a temperature of 23±1° C., a humidity of 55±5%, and a light intensity of 3000 Lux under a 12 h light-dark cycle (light on from 07:00 to 19:00). The animals had ad libitum access to food and water. All animals were maintained in accordance with the guidelines for the Institutional Animal Care and Use Committee of the Korea Food Research Institute (KFRI-IACUC).
C57BL/6N mice were acclimated for a period of one week and received electrode implantation for electroencephalogram (EEG) and electromyogram (EMG) recordings. Each mouse was anesthetized with pentobarbital (50 mg/kg, i.p.) and its head was fixed in a stereotaxic instrument. After the subcutaneous connective tissue of the head was incised, an EEG/EMG headmount (Pinnacle Technology Inc., Lawrence, Kans., USA) was implanted for EEG and EMG recordings, fixed with dental cement, and closed with sutures. The surgical site was sterilized and an antibiotic was administered for 3 days to prevent possible inflammation after surgery. The animal was allowed to recover for 7 days. For adaptation to the recording conditions, 0.5% CMC-saline solution used as a control was administered orally from 4 days before measurement. Thereafter, the recording instrument was connected to induce acclimation of the animal to this experimental procedure.
After oral administration of a sample, the animal was stabilized for 5 min. Then, EEG and EMG were recorded using PAL-8200 series (Pinnacle Technology Inc., Lawrence, Kans., USA) for 24 h from 17:00. The sampling rate for EEG and EMG recordings was set to 200 Hz (epoch time: 10 s). The filtering range was set to 0.1-25 Hz for EEG data recording and 10-100 Hz for EMG data recording.
Sleep architecture analysis was conducted according to the fast Fourier transform (FFT) algorithm using the SleepSign program (Ver. 3.0, Kissei Comtec Inc., Matsumoto, Nagono, Japan).
The results were divided into three stages: Wake, REMS (rapid eye movement sleep, theta band: 6-10 Hz) and NREMS (non-rapid eye movement sleep, delta band: 0.5-4 Hz). Sleep latency was defined as the time required for NREM sleep with 10 s epoch to occur consecutively at least 12 times (Blanco-Centurion et al., 2006). The values in the 0.5-4 Hz range were averaged and the delta power during NREM sleep was expressed in percent relative to the control.
All animal experimental data were expressed as mean±standard deviation.

[2] = test system: C57BL/6N mice; assay: Sleep architecture (EEG) during long-term administration for 21 days and 2-day withdrawal; format: in vivo
Experimental: Experimental animals were prepared and their sleep architecture was analyzed in the same manner as in Experimental Example 1. As in the single administration in Experimental Example 1, the mice were allowed to recover for 7 days after surgery and acclimated for 4 days. Thereafter, baselines (BL) were measured on day 0 after acclimation and a sample was administered orally to each animal for 21 days. EEGs were recorded on days 1, 7, 14, and 21. EEGs were recorded and analyzed during the subsequent 2-day withdrawal. FIG. 8 is a flow diagram of an experiment for sleep architecture analysis during long-term administration.
EEGs were recorded for the mice on days 0, 1, 7, 14, and 21 during long-term administration of each sample for 3 weeks. The recorded EEGs were analyzed.

[3] = test system: GABAA-benzodiazepine receptor; assay: Mechanism of action for sleep enhancement: flumazenil given 15 min before oral sample, EEG/EMG; format: in vivo, mice
Experimental: To investigate the mechanism of action for sleep enhancement, flumazenil, an antagonist of the GABAA-benzodiazepine receptor, was administered 15 min before oral administration of phloroglucinol and EEG and EMG were recorded by the same method as described in Experimental Example 1.
In this example, zolpidem was used as a positive control.

[4] = administered alone at doses of 25 to 50 mg/kg; cited from earlier work
[5] = test system: GABAA-benzodiazepine; conditions: compared with other phlorotannins and diazepams; cited from earlier work
[6] = oral once daily for 3 weeks, phloroglucinol 100 mg/kg, zolpidem 5 mg/kg
[7] = oral once daily for 3 weeks, phloroglucinol 100 mg/kg, zolpidem 5 mg/kg, or both

Compound: CN1C(=O)CN=C(c2ccccc2)c2cc(Cl)ccc21 [diazepam]
- delta activity in the range of 0.5-4 Hz ([1]; 5 mg/kg diazepam (data not shown)): significantly reduced

Compound: Oc1cc(O)cc(O)c1 [phloroglucinol]
- NREM sleep [1]: increased NREM sleep in a concentration-dependent manner
- REM sleep [1]: without affecting REM sleep
- delta activity during NREM sleep ([1]; oral, up to 150 mg/kg alone): no significant change
- time after administration for which NREM sleep was significantly increased ([1]; single administration 150 mg/kg): 2 h
- sleep latency compared to negative control (vehicle) ([1]; single oral administration, all concentrations (50, 100 and 150 mg/kg)): significantly reduced
- NREM sleep duration compared to baseline (BL) [2, 6]: increase
- intolerance on long-term administration [2, 6]: no intolerance
- sleep latency compared to baseline (BL) [2, 6]: significant reduction
- persistence of NREM sleep-enhancing effect from day 1 to day 21 ([2]; phloroglucinol 100 mg/kg alone or with zolpidem 5 mg/kg, once daily): lasted similarly from day 1 to day 21
- amount of NREM sleep ([3]; treated with flumazenil 15 min before oral administration): level similar to that of a negative control
- NREM sleep ([3]; untreated with flumazenil): increased NREM sleep
- sleep duration [4]: increasing sleep duration
- sleep latency [4]: effective in reducing sleep latency
- IC50 [5]: much lower
- binding affinity (Ki) [5]: much lower

Compound: Cc1ccc(-c2nc3ccc(C)cn3c2CC(=O)N(C)C)cc1 [zolpidem, N,N,6-trimethyl-2-p-tolylimidazo[1,2-a]pyridine-3-acetamide L-(+)-tartrate (2:1)]
- residual sedation ([1]; 5 mg/kg): slight residual sedation
- time after administration for which NREM sleep was significantly increased ([1]; 5 mg/kg): 3 h
- time after administration for which vigilance was significantly reduced ([1]; 5 mg/kg): up to 9 h
- NREM sleep at 14 h after administration (residual sedative effect) ([1]; 10 mg/kg alone): significantly increased
- time after administration for which the sleep-enhancing effect lasted ([1]; 10 mg/kg alone): 4 h
- increase of NREM sleep duration ([1]; 10 mg/kg, 2 h after oral administration, p<0.01): 74.6%
- NREM sleep [1]: increased NREM sleep in a concentration-dependent manner
- REM sleep [1]: without affecting REM sleep
- delta activity in the range of 0.5-4 Hz during NREM sleep ([1]; oral 5 mg/kg, p<0.01): significantly reduce
- delta activity in the range of 0.5-4 Hz during NREM sleep ([1]; oral 10 mg/kg, p<0.01): significantly reduce
- reduction of sleep latency ([1]; single administration of zolpidem 10 mg/kg): ~44 min
- sleep latency compared to negative control (vehicle) ([1]; single administration, 5 and 10 mg/kg): significantly reduced
- time for which NREM sleep duration was significantly increased compared to baseline ([2]; day 1, zolpidem 5 mg/kg alone or with phloroglucinol 100 mg/kg): 3 h
- time for which NREM sleep duration was significantly increased compared to baseline ([2]; day 21, zolpidem 5 mg/kg alone): 1 h
- delta activity compared to baseline ([2]; days 1, 7, and 14 of long-term administration, zolpidem 5 mg/kg, p<0.01): significant reductions
- NREM sleep duration compared to baseline (BL) [2, 6]: significant increase
- intolerance on long-term administration [2, 6]: demonstrating intolerance
- sleep latency compared to baseline (BL) [2, 6]: significant reduction
- NREM sleep duration with increasing administration period (third week / day 21 versus first day) [2, 7]: significant difference
- sleep latency with increasing administration period (third week / days 7, 14, 21 versus first day) [2, 7]: significant difference
- sleep-enhancing effect with flumazenil ([3]; flumazenil administered before sample, positive control): completely blocked
